{"source": "patent US8563586B2", "about": "“1,(3,)5-substituted imidazoles, their use in the treatment of hypertension and methods for their preparation” (Eldrug S.A., priority 2007, dated 2013)", "key": {"[1]": {"test_system": "anesthetized rabbits made hypertensive by AII infusion", "assay": "In vivo: anesthetized rabbits made hypertensive by AII infusion, IV boluses of compound", "parameters": "species or system New Zealand White rabbits", "conditions": "for AII antagonistic effect: doses of 2 and 3.5 mol, cumulative IV boluses, potency order 22, 20, 15, 18, 23, 21, 30, 29; for in vivo antihypertensive potency / activity, relative, in words: anesthetized rabbits, angiotensin II-induced hypertension", "protocol": "The applicant has also established an in vivo assay using anesthetized rabbits in [Onassis 30 Cardiac Institute] which allows us to estimate relative potencies.\nThe assay is a routine assay and constitutes a convenient method to measure activities of AII antagonists.\nIn vivo experiments: Adult normotensive male New Zealand White rabbits weighing between 2.5 and 3.3 kg were used in the study following previously described methods.^46,47 In brief, animals were anesthetized by pentobarbitone (30 mg/kg), intubated and mechanically ventilated with 100% oxygen using a respirator for small animals (MD Industries, Mobile, Ala., USA). The tidal volume was 15 ml and the rate was adjusted to keep blood gases within normal rage. Two polyethylene catheters were inserted, one in the carotid artery for continuous blood pressure monitoring via a transducer attached to a multichannel recorder (Nihon-Kohden, Model 6000, Japan) and the other one in the jugular vein for the administrations of solution made by diluting Angiotensin II (AII) (Hypertensin, CIBA) in 5% dextrose at final concentration of 5 µg/ml. Based on previous testing with this rabbit preparation submaximal angiotensin II-dependent hypertension was induced by infusing Angiotensin via a syringe pump (Harvard Apparatus Pump 22, Harvard Apparatus, Natick. Mass., USA) at a constant rate of 0.2 ml/min ([…]). […] Five minutes after the establishment of hypertension, two cumulative IV boluses of each compound (2 and 3.5 mol) were given via an ear vein 20 minutes apart. The blood pressure was monitored for 20 minutes after the second bolus and then angiotensin infusion was halted and blood pressure was recorded for an additional period of 20 minutes until the end of the experiment. Boluses of the same dose of Losartan, as positive control, were used in the same experimental model.\nThe antihypertensive effect and the degree of potency of these compounds were tested in a preparation of anesthetized rabbits made hypertensive by AII infusion."}, "[2]": {"test_system": "conscious rabbits made hypertensive by angiotensin II infusion", "conditions": "15 mg mixed with vaseline applied on bare skin", "from_the_text": "Conscious rabbits were made hypertensive by angiotensin II infusion. A mixture of 1 5 mgr of our lipophilic angiotensin II receptor blocker compound 20 (or its dialkylated counterpart) with vaseline was applied on bare skin."}, "human AT1": {"target": "T1, human AT1 (Homo sapiens, UniProt P30556)", "T1 construct": "purchased PerkinElmer Life Sciences, Inc., Boston, Mass., USA", "T1 sequence (P30556 1-359)": "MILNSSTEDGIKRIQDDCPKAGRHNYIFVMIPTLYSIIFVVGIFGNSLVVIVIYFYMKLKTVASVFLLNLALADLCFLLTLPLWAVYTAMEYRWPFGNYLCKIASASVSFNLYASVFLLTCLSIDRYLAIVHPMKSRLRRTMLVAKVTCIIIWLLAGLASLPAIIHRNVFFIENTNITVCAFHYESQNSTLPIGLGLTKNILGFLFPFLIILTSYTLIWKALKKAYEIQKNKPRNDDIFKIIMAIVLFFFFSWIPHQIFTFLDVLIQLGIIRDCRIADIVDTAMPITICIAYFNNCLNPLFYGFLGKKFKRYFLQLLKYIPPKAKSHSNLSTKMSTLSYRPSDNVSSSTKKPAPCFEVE", "assay": "In vitro binding, membranes containing AT1 receptor, radioligand [125I]Sar1,Ile8-Angiotensin II"}, "rat isolated uterus": {"test_system": "rat isolated uterus", "conditions": "cited from earlier work"}, "anesthesized rabbits": {"test_system": "anesthesized rabbits", "conditions": "rabbit, in vivo; cited from earlier work"}}, "note": "Entries after “also recorded” stand apart in the source; their conditions may differ."}
{"compound": "Cc1cn(C(c2ccccc2)(c2ccccc2)c2ccccc2)cn1", "note": "[Compound 15, 3-(Triphenylmethyl)-5-methylimidazole]", "values": [{"measurement": "AII antagonistic effect", "setting": "[1]", "result": "dose-dependent AII antagonistic effect"}]}
{"compound": "OCc1nc2ccccc2n1Cc1ccc(-c2ccccc2-c2nnnn2Cc2ccccc2)cc1", "note": "[Compound 29, 1-[[2′-[(N-benzyl)tetrazol-5-yl]biphenyl-4-yl]methyl]-2-hydroxymethyl benzimidazole]", "values": [{"measurement": "in vivo antihypertensive potency / activity, relative, in words", "setting": "[1]", "result": "even less potent"}, {"measurement": "AII antagonistic effect", "setting": "[1]", "result": "dose-dependent AII antagonistic effect"}, {"measurement": "melting point", "result": "62 to 63", "unit": "°C"}]}
{"compound": "Cc1cnc(CO)n1Cc1ccc(-c2ccccc2-c2nnn[nH]2)cc1", "note": "[Compound 23, 5-methyl-2-hydroxymethyl-1-[[2′-(1H-tetrazol-5-yl)biphenyl-4-yl]methyl]imidazole]", "values": [{"measurement": "in vivo antihypertensive potency / activity, relative, in words", "setting": "[1]", "result": "less potent"}, {"measurement": "AII antagonistic effect", "setting": "[1]", "result": "dose-dependent AII antagonistic effect"}]}
{"compound": "c1ccc(Cn2nnnc2-c2ccccc2-c2ccc(Cn3cnc4ccccc43)cc2)cc1", "note": "[Compound 28, 1-[[2′-[(N-benzyl)tetrazol-5-yl]biphenyl-4-yl]methyl]benzimidazole]", "values": [{"measurement": "in vivo antihypertensive potency / activity, relative, in words", "setting": "[1]", "result": "even less potent"}, {"measurement": "melting point", "result": "62 to 64", "unit": "°C"}]}
{"compound": "CCCCc1cncn1Cc1ccc(-c2ccccc2-c2nnnn2Cc2ccccc2)cc1", "note": "[Compound 24, 1-[[2′-[(N-benzyl)tetrazol-5-yl]biphenyl-4-yl]methyl]-5-butylimidazole]", "values": [{"measurement": "melting point", "result": "69 to 71", "unit": "°C"}]}
{"compound": "CCCCc1cnc(CO)n1Cc1ccc(-c2ccccc2-c2nnnn2Cc2ccccc2)cc1", "note": "[Compound 25, 1-[[2′-[(N-benzyl)tetrazol-5-yl]biphenyl-4-yl]methyl]-5-butyl-2hydroxymethyl imidazole]", "values": [{"measurement": "in vivo antihypertensive potency / activity, relative, in words", "setting": "[1]", "result": "more potent compared to 18; also recorded: most potent"}]}
{"compound": "CCCCc1cnc(CO)n1Cc1ccc(-c2ccccc2-c2nnn(C(c3ccccc3)(c3ccccc3)c3ccccc3Cl)n2)cc1", "note": "[Compound 20, 5-Butyl-2-hydroxymethyl-1-[[2′-[[N-(2-chloro-triphenylmethyl)]tetrazol-5yl]biphenyl-4-yl]methyl]imidazole]", "values": [{"measurement": "blood pressure lowered by", "setting": "[2]", "result": 20, "unit": "mmHg"}, {"measurement": "duration of blood pressure lowering", "setting": "[2]", "result": "two"}, {"measurement": "affinity for AT1 receptor, in words, relative to Losartan", "setting": "human AT1; in vitro binding studies", "result": "lower affinity"}, {"measurement": "in vivo antihypertensive potency / activity, relative, in words", "setting": "[1]", "result": "highly potent; also recorded: more potent compared to 18; also recorded: most potent"}, {"measurement": "AII antagonistic effect", "setting": "[1]", "result": "dose-dependent AII antagonistic effect"}]}
{"compound": "CCCCc1cnc(CO)n1Cc1ccc(-c2ccccc2-c2nnn[nH]2)cc1", "note": "[Compound 22, 5-butyl-2-hydroxymethyl-1-[[2′-(1H-tetrazol-5-yl)biphenyl-4-yl]methyl]imidazole]", "values": [{"measurement": "fold lower affinity for the AT1 receptor than that of Losartan", "setting": "human AT1; from IC50 values", "result": "~3", "unit": "fold"}, {"measurement": "IC50", "setting": "human AT1; membranes containing AT1 receptors, competition with 0.1 nM [125I]Sar1,Ile8-Angiotensin II, read-out: IC50, affinity for the AT1 receptor", "result": "53.8 ± 6.4", "unit": "nM"}, {"measurement": "in vivo antihypertensive potency / activity, relative, in words", "setting": "[1]", "result": "highly potent; also recorded: more potent compared to 18; also recorded: slightly superior in activity; also recorded: most potent"}, {"measurement": "AII antagonistic effect", "setting": "[1]", "result": "dose-dependent AII antagonistic effect"}]}
{"compound": "[Sar^1, Lys^3, Glu^5] ANG II", "values": [{"measurement": "activity in the rat uterus assay", "setting": "rat isolated uterus", "result": "agonist activity"}, {"measurement": "activity in anesthesized rabbits", "setting": "anesthesized rabbits", "result": "agonist activity"}]}
{"compound": "Cc1cnc(CO)n1Cc1ccc(-c2ccccc2-c2nnn(C(c3ccccc3)(c3ccccc3)c3ccccc3Cl)n2)cc1", "note": "[Compound 21, 5-Methyl-2-hydroxymethyl-1-[[2′-[[N-(2-chloro-triphenylmethyl)]tetrazol-5-yl]biphenyl-4-yl]methyl]imidazole]", "values": [{"measurement": "in vivo antihypertensive potency / activity, relative, in words", "setting": "[1]", "result": "less potent; also recorded: least active"}, {"measurement": "AII antagonistic effect", "setting": "[1]", "result": "dose-dependent AII antagonistic effect"}]}
{"compound": "OCc1nc2ccccc2n1Cc1ccc(-c2ccccc2-c2nnn[nH]2)cc1", "note": "[Compound 30, 2-hydroxymethyl-1-[[2′-(1H-tetrazol-5-yl)biphenyl-4-yl]methyl]benzimidazole]", "values": [{"measurement": "in vivo antihypertensive potency / activity, relative, in words", "setting": "[1]", "result": "even less potent; also recorded: least active"}, {"measurement": "AII antagonistic effect", "setting": "[1]", "result": "dose-dependent AII antagonistic effect"}]}
{"compound": "CCCCc1cncn1Cc1ccc(-c2ccccc2-c2nnn(C(c3ccccc3)(c3ccccc3)c3ccccc3Cl)n2)cc1", "note": "[Compound 18, 5-Butyl-1-[[2′-[[N-(2-chloro-triphenylmethyl)]tetrazol-5-yl]biphenyl-4-yl]methyl]imidazole]", "values": [{"measurement": "in vivo antihypertensive potency / activity, relative, in words", "setting": "[1]", "result": "more potent; also recorded: less potent compared to 20 and 25"}, {"measurement": "AII antagonistic effect", "setting": "[1]", "result": "dose-dependent AII antagonistic effect"}]}
